What was measured:
[1] = system: iCasp9M.IRES.GFPhigh-transduced CTLs in LCL xenograft; experiment: SCID mouse-human xenograft model, elimination of iCasp9M-transduced CTLs; format: in vivo, NOD/SCID mice; settings: single dose of CID (50 μg AP20187 i.p.), 3 days after
Method: Non-obese diabetic severe combined immunodeficient (NOD/SCID) mice, 6 to 8 weeks of age, were irradiated (250 rad) and injected subcutaneously in the right flank with 10×10^6 to 15×10^6 LCLs resuspended in Matrigel (BD Bioscience). Two weeks later mice bearing tumors that were approximately 0.5 cm in diameter were injected into the tail vein with a 1:1 mixture of nontransduced and iCasp9.I.GFPhigh-transduced EBV CTLs (total 15×10^6). At 4 to 6 hours prior and 3 days after CTL infusion, mice were injected intraperitoneally with recombinant hIL-2 (2000 U; Proleukin; Chiron). […] By FACS analysis, the number of GFP^+ cells within the gated CD3^+ population was evaluated. […]
The function of iCasp9M also was evaluated in transduced EBV-CTLs in vivo. […] Three days after CID/carrier administration, tumors were analyzed for human CD3^+/GFP^+ cells. […]
The function of iCasp9M in vivo, was assayed. […] On day 3 after CTL administration, mice received either CID (50 µg AP20187; (black diamonds, n=6) or carrier only (black squares, n=5) and on day 6 the presence of human CD3^+/GFP^+ T cells in the tumors was analyzed. Human CD3^+ T cells isolated from the tumors of a control group of mice that received only nontransduced CTLs (15×10^6 CTLs; n=4) were used as a negative control for the analysis of CD3^+/GFP^+ T cells within the tumors.

[2] = system: non-transduced cells; experiment: AP20187 on non-transduced cells (annexin V/7-AAD viability); format: cell-based, human
Method: Suicide gene functionality was assessed by adding a small molecule synthetic homodimerizer, AP20187 (Ariad Pharmaceuticals; Cambridge, Mass.), at 10 nM final concentration the day following CD19 immunomagnetic selection. Cells were stained with annexin V and 7-amino-actinomycin (7-AAD)(BD Pharmingen) at 24 hours and analyzed by flow cytometry. Cells negative for both annexin V and 7-AAD were considered viable, cells that were annexin V positive were apoptotic, and cells that were both annexin V and 7-AAD positive were necrotic. The percentage killing induced by dimerization was corrected for baseline viability as follows: Percentage killing=100%−(% Viability in AP20187-treated cells÷% Viability in nontreated cells).
The day following immunomagnetic selection, 10 nM of the chemical inducer of dimerization, AP20187, was added to induce apoptosis, which appeared within 24 hours. […] Killing efficiency after correction for baseline viability was about 92.9%±3.8%. Large-scale CD19 selection produced cells that were killed with similar efficiency as small-scale selection: mean viability with and without AP20187, and percentage killing, in large and small scale were about 3.9%, about 84.0%, about 95.4% (n=3) and about 6.6%, about 79.3%, about 91.4% (n=5) respectively. […]

[3] = system: HPAC PSCA+ tumor cells; experiment: T cell anti-tumor assay with HPAC-RFP cells (IncuCyte, ELISA); format: cell-based, human; settings: 10 nM on day 7 of co-culture
Method: PBMCs from donor 920 were activated and co-transduced with GFP-Ffluc and iMC+CARζ-T (189), i9+CARζ+MC (873), or FwtFRBC9/MC.FvFv (1308)-encoding vectors. […] (A & B) Two days post-seeding, culture supernatants were analyzed for IL-2, IL-6, and IFN-γ production by ELISA. […] Numbers of HPAC-RFP and T cell-GFP at the E:T 1:2 ratio was analyzed using the basic analyzer software for the IncuCyte at day 7 (Ci) and day 8 with 0 nM suicide drug (Cii) and 10 nM suicide drug (Ciii). Similar analysis was also performed at the 1:5 E:T ratio (D). (Note: the y-axis in Ci and Di are at log-scale).
The HPAC PSCA^+ tumor cells were stably labeled with nuclear-localized RFP protein using the NucLight™ Red Lentivirus Reagent (Essen Bioscience, 4625). To set up the coculture, 4000 HPAC-RFP cells were seeded per well of 96-well plates in 100 μl of CTL medium without IL-2 for at least 4 hours to allow tumor cells to adhere. After transduction with the appropriate retrovirus and allowed to rest for at least 7 days in culture, T were seeded according to various E:T ratios to the HPAC-RFP-containing 96-well plates. […] Each plate was set up in duplicates, one plate to monitor with the IncuCyte cell imaging system and one plate for supernatant collection for ELISA assay on day 2. The plates were centrifuged for 5 min at 400×g and placed inside the IncuCyte (Essen Bioscience, Dual Color Model 4459) to monitor red fluorescence (and green fluorescence if T cells were labeled with GFP-Ffluc) every 2-3 hours for a total of 7 days at 10× objective. Image analysis was performed using the “HPAC-RFP_TcellsGFP_10×_MLD” processing definition. On day 7, HPAC-RFP cells were analyzed using the “Red Object Count (1/well)” metric. […] On day 8, Tcell-GFP cells were analyzed using the “Total Green Object Integrated Intensity” metric. Each condition was performed at least in duplicates and each well was imaged at 4 different locations.

[4] = system: HLA-B7+Bob-1+ U266 multiple myeloma; experiment: iMC-Bob-1 TCR cytotoxicity and IL-2 secretion against U266; format: cell-based
Description: FIG. 120: (A) iMC-Bob-1 TCR-mediated cytotoxicity against HLA-B7^+Bob-1^+ U266 multiple myeloma is rimiducid-independent. […] Go156 TCR is a negative control TCR.

[5] = system: HLA-A2+PRAME+ U2OS osteosarcoma; experiment: iMC-PRAME TCR cytotoxicity and IL-2 secretion against U2OS; format: cell-based
Description: The Go156 TCR is a negative control TCR.

Compound | reduction in the number of human CD3+/GFP+ T cells versus carrier ([1]; listed as CID) | reduction in the number of human CD3+/GFP+ T cells versus carrier ([1]; listed as dimerizer) | toxicity to non-transduced cells [2] | viability with AP20187 ([2]; non-transduced cells (n=6)) | reduction of i9+CARζ+MC T cells [3] | iMC-Bob-1 TCR-mediated cytotoxicity against U266 ([4]; FIG. 120A) | IL-2 secretion, Bob-1 TCR with rimiducid-driven iMC costimulation, U266 ([4]; FIG. 120B) | iMC-PRAME TCR-mediated cytotoxicity against U2OS ([5]; FIG. 119A) | IL-2 secretion, PRAME TCR with rimiducid-driven iMC costimulation, U2OS ([5]; FIG. 119B)
CC[C@H](C(=O)N1CCCC[C@H]1C(=O)O[C@H](CCc1ccc(OC)c(OC)c1)c1cccc(OCC(=O)NCC(CNC(=O)COc2cccc([C@@H](CCc3ccc(OC)c(OC)c3)OC(=O)[C@@H]3CCCCN3C(=O)[C@@H](CC)c3cc(OC)c(OC)c(OC)c3)c2)CN(C)C)c1)c1cc(OC)c(OC)c(OC)c1 [AP20187] | > 99% | more than 99% | non-toxic | about 86%±9 | – | – | – | – | –
CC[C@H](C(=O)N1CCCC[C@H]1C(=O)O[C@H](CCc1ccc(OC)c(OC)c1)c1cccc(OCC(=O)NCCNC(=O)COc2cccc([C@@H](CCc3ccc(OC)c(OC)c3)OC(=O)[C@@H]3CCCCN3C(=O)[C@@H](CC)c3cc(OC)c(OC)c(OC)c3)c2)c1)c1cc(OC)c(OC)c(OC)c1 [rimiducid] | – | – | – | – | approximately 50% | rimiducid-independent | maximal IL-2 secretion | rimiducid-independent | maximal IL-2 secretion

From patent US20230065562A1, “DUAL CONTROLS FOR THERAPEUTIC CELL ACTIVATION OR ELIMINATION” (Bellicum Pharmaceuticals, Inc., priority 2015, published 2023)
